pKd: −log10 of the molar value. Activity calls are given as the source filed them. The rule behind the calls is not given here.
Columns and labels:
[1] = target: T1, C-C motif chemokine 5 (Homo sapiens) (UniProt P13501); test: Binding affinity to human CCL5 at 100 uM by glycan microarray analysis
T1 sequence (whole entry): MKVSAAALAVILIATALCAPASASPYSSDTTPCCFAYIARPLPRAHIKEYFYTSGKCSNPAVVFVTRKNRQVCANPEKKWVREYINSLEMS

[2] = target: T2, Stromal cell-derived factor 1 (Homo sapiens, UniProt P48061); test: Binding affinity to human CXCL12 at 100 uM by glycan microarray analysis
T2 sequence (P48061 whole entry): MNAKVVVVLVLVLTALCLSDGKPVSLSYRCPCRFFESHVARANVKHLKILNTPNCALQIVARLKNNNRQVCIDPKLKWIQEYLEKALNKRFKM

[3] = target: Interleukin-8 (Homo sapiens) (UniProt P10145); test: Binding affinity to human CXCL8 at 100 uM by glycan microarray analysis
Homo sapiens [4] = organism: Homo sapiens; test: Binding affinity to human CCL13 at 100 uM by glycan microarray analysis
C-C motif chemokine 2 [5] = target: T3, C-C motif chemokine 2 (Homo sapiens, UniProt P13500); test: Binding affinity to human CCL2 at 100 uM by glycan microarray analysis
Target sequence in this assay (P13500 24-99 limits assumed): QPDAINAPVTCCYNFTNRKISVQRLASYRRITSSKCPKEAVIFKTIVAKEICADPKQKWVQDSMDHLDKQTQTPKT

[6] = target: C-X-C motif chemokine 10 (Homo sapiens) (UniProt P02778); test: Binding affinity to human CXCL10 at 100 uM by glycan microarray analysis
Homo sapiens [7] = organism: Homo sapiens; test: Binding affinity to human CCL28 at 100 uM by glycan microarray analysis
[8] = target: C-C motif chemokine 7 (Homo sapiens) (UniProt P80098); test: Binding affinity to human CCL7 at 100 uM by glycan microarray analysis
Sequence of C-C motif chemokine 7 (Homo sapiens) (P80098 whole entry): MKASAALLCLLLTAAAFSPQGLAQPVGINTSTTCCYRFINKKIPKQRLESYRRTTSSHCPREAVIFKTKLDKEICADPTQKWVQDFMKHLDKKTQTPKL

Homo sapiens [9] = organism: Homo sapiens; test: Binding affinity to human CCL21 at 100 uM by glycan microarray analysis
C-C motif chemokine 2 [10] = target: T3, C-C motif chemokine 2; test: Binding affinity to human CCL2 assessed as off-rate constant incubated for 3 mins by surface plasmon resonance analysis
Target sequence in this assay (P13500 24-99 limits assumed): as the sequence (P13500 24-99 limits assumed) above

C-C motif chemokine 2 [11] = target: T3, C-C motif chemokine 2; test: Binding affinity to human CCL2 assessed as dissociation constant incubated for 3 mins by surface plasmon resonance analysis
Target sequence in this assay (P13500 whole entry): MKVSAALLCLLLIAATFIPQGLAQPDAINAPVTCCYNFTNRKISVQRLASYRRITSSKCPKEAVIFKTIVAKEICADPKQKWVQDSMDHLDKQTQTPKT

MCF7 [12] = test: Decrease in MAPK expression in human MCF7 cells at 50 ug/ml measured after 30 mins in presence of CCL2 by Western blot analysis; assay type: functional, cell-based; details: dose 50.0 µg/ml
MCF7 [13] = test: Anti-proliferative activity against human MCF7 cells assessed as reduction in cell proliferation at 10 to 50 ug/ml compound pretreated with CCL2 followed by incubation with cells and measured after 48 hrs by Sulforhodamine B staining based WST assay; assay type: functional; details: dose 10-50 µg/ml, at 10 to 50 µg/mL
MDA-MB-231 = test: Anti-proliferative activity against human MDA-MB-231 cells assessed as reduction in cell proliferation at 10 to 50 ug/ml compound pretreated with CCL2 followed by incubation with cells and measured after 48 hrs by Sulforhodamine B staining based WST assay; assay type: functional; details: dose 10-50 µg/ml, at 10 to 50 µg/mL
MCF7 [14] = test: Antimigratory activity against human MCF7 cells assessed as reduction in cell migration at 10 to 50 ug/ml measured after 5 hrs in presence of CCL2 by wound healing assay relative to control; assay type: functional; details: dose 10-50 µg/ml
C-C motif chemokine 5 = target: T4, C-C motif chemokine 5 (Homo sapiens, UniProt P13501); test: Binding affinity to human CCL5 assessed as dissociation constant incubated for 3 mins by surface plasmon resonance analysis
T4 sequence (P13501 whole entry): T1 sequence (whole entry)

MCF7 [15] = test: Induction of cell cycle arrest in human MCF7 cells assessed as accumulation of cells at G2/M phase incubated for 72 hrs in presence of CCL2 by PI staining based flow cytometric analysis; assay type: functional
MCF7 [16] = test: Antiinvasive activity against human MCF7 cells assessed as inhibition of cell invasion at 50 ug/ml measured after 24 hrs in presence of CCL2 by crystal violet staining based Boyden chamber analysis; assay type: functional; details: dose 50.0 µg/ml
[17] = target: T2, Stromal cell-derived factor 1; test: Binding affinity to human CXCL12 assessed as dissociation constant incubated for 3 mins by surface plasmon resonance analysis
Interleukin-8 = target: T5, Interleukin-8 (Homo sapiens, UniProt P10145); test: Binding affinity to human CXCL8 assessed as dissociation constant incubated for 3 mins by surface plasmon resonance analysis
T5 sequence (P10145 whole entry): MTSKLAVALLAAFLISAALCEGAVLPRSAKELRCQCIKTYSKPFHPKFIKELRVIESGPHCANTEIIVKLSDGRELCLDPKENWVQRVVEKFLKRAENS

[18] = target: T1, C-C motif chemokine 5 (Homo sapiens); test: Binding affinity to human CCL5 assessed as on-rate constant incubated for 3 mins by surface plasmon resonance analysis
[19] = target: Interleukin-8 (Homo sapiens) (UniProt P10145); test: Binding affinity to human CXCL8 assessed as on-rate constant incubated for 3 mins by surface plasmon resonance analysis
[20] = target: T1, C-C motif chemokine 5 (Homo sapiens); test: Binding affinity to human CCL5 assessed as off-rate constant incubated for 3 mins by surface plasmon resonance analysis
[21] = target: Interleukin-8 (Homo sapiens) (UniProt P10145); test: Binding affinity to human CXCL8 assessed as off-rate constant incubated for 3 mins by surface plasmon resonance analysis
C-C motif chemokine 2 [22] = target: T3, C-C motif chemokine 2; test: Binding affinity to human CCL2 assessed as on-rate constant incubated for 3 mins by surface plasmon resonance analysis
Target sequence in this assay (P13500 24-99 limits assumed): as the sequence (P13500 24-99 limits assumed) above

C-X-C motif chemokine 10 = target: T6, C-X-C motif chemokine 10 (Homo sapiens, UniProt P02778); test: Binding affinity to human CXCL10 assessed as dissociation constant incubated for 3 mins by surface plasmon resonance analysis
T6 sequence (P02778 whole entry): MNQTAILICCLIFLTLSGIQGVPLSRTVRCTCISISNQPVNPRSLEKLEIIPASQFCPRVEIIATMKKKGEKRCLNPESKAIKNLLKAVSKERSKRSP

Compound | Activity [1] [%] | Activity [2] [%] | Activity [3] [%] | Activity (Homo sapiens [4]) [%] | Activity (C-C motif chemokine 2 [5]) [%] | Activity [6] [%] | Activity (Homo sapiens [7]) [%] | Activity [8] [%] | Activity (Homo sapiens [9]) [%] | other results
NCCOCCO[C@@H]1O[C@@H](C(=O)O)[C@@H](OS(=O)(=O)O)[C@H](O)[C@H]1OS(=O)(=O)O | 75 | 75 | 71 | 53 | 66 | 82 | 51 | 94 | 79 | –
NCCOCCO[C@@H]1O[C@@H](C(=O)O)[C@@H](O[C@@H]2O[C@@H](C(=O)O)[C@@H](O[C@@H]3O[C@@H](C(=O)O)[C@@H](O)[C@H](O)[C@H]3O)[C@H](O)[C@H]2O)[C@H](O)[C@H]1O | 1 | 38 | 5 | 69 | 0 | 24 | 72 | 17 | 46 | –
NCCOCCO[C@@H]1O[C@@H](C(=O)O)[C@@H](O[C@@H]2O[C@@H](C(=O)O)[C@@H](OS(=O)(=O)O)[C@H](O)[C@H]2OS(=O)(=O)O)[C@H](O)[C@H]1OS(=O)(=O)O | 86 | 98 | 83 | 88 | 69 | 96 | 76 | 87 | 86 | –
NCCOCCO[C@@H]1O[C@@H](C(=O)O)[C@@H](O[C@@H]2O[C@@H](C(=O)O)[C@@H](O[C@@H]3O[C@@H](C(=O)O)[C@@H](O[C@@H]4O[C@@H](C(=O)O)[C@@H](O)[C@H](O)[C@H]4O)[C@H](O)[C@H]3O)[C@H](O)[C@H]2O)[C@H](O)[C@H]1O | 2 | 56 | 12 | 67 | 2 | 44 | 56 | 33 | 48 | –
NCCOCCO[C@@H]1O[C@@H](C(=O)O)[C@@H](O[C@@H]2O[C@@H](C(=O)O)[C@@H](O[C@@H]3O[C@@H](C(=O)O)[C@@H](OS(=O)(=O)O)[C@H](O)[C@H]3OS(=O)(=O)O)[C@H](O)[C@H]2OS(=O)(=O)O)[C@H](O)[C@H]1OS(=O)(=O)O | 80 | 82 | 95 | 67 | 67 | 74 | 84 | 79 | 80 | –
NCCOCCO[C@@H]1O[C@@H](C(=O)O)[C@@H](OS(=O)(=O)O)[C@H](O)[C@H]1O | 15 | 64 | 62 | 81 | 23 | 57 | 80 | 58 | 62 | –
NCCOCCO[C@@H]1O[C@@H](C(=O)O)[C@@H](O[C@@H]2O[C@@H](C(=O)O)[C@@H](OS(=O)(=O)O)[C@H](O)[C@H]2O)[C@H](O)[C@H]1O | 38 | 79 | 73 | 94 | 25 | 67 | 84 | 55 | 71 | –
NCCOCCO[C@@H]1O[C@@H](C(=O)O)[C@@H](O[C@@H]2O[C@@H](C(=O)O)[C@@H](O)[C@H](O)[C@H]2O)[C@H](O)[C@H]1O | 2 | 66 | 12 | 82 | 2 | 45 | 58 | 30 | 63 | –
NCCOCCO[C@@H]1O[C@@H](C(=O)O)[C@@H](O)[C@H](O)[C@H]1O | 2 | 62 | 17 | 74 | 4 | 47 | 46 | 30 | 52 | –
NCCOCCO[C@@H]1O[C@@H](C(=O)O)[C@@H](O[C@@H]2O[C@@H](C(=O)O)[C@@H](O[C@@H]3O[C@@H](C(=O)O)[C@@H](O[C@@H]4O[C@@H](C(=O)O)[C@@H](OS(=O)(=O)O)[C@H](O)[C@H]4OS(=O)(=O)O)[C@H](O)[C@H]3OS(=O)(=O)O)[C@H](O)[C@H]2OS(=O)(=O)O)[C@H](O)[C@H]1OS(=O)(=O)O | 91 | 91 | 96 | 70 | 88 | 87 | 72 | 80 | 50 | K (C-C motif chemokine 2 [10]): 2.1 10^-1/s; pKd (C-C motif chemokine 2 [11]): 5.78; inhibition (MCF7 [12]): Active; inhibition (INH) (MCF7 [13]): 40%; inhibition (INH) (MDA-MB-231): 40%; inhibition (INH) (MCF7 [14]; at 10 to 50 µg/mL): 34%; pKd (C-C motif chemokine 5): 5.24; Activity (MCF7 [15]): 19%; Activity (MCF7 [16]): Active; pKd [17]: 4.73; pKd (Interleukin-8): 5.03; K [18]: 4.2 10^4/M/s; K [19]: 3.16 10^5/M/s; K [20]: 2.4 10^-1/s; K [21]: 2.96 10^-1/s; K (C-C motif chemokine 2 [22]): 1.26 10^5/M/s; pKd (C-X-C motif chemokine 10): 4.71
NCCOCCO[C@@H]1O[C@@H](C(=O)O)[C@@H](O[C@@H]2O[C@@H](C(=O)O)[C@@H](O[C@@H]3O[C@@H](C(=O)O)[C@@H](O[C@@H]4O[C@@H](C(=O)O)[C@@H](OS(=O)(=O)O)[C@H](O)[C@H]4O)[C@H](O)[C@H]3O)[C@H](O)[C@H]2O)[C@H](O)[C@H]1O | 10 | 45 | 13 | 72 | 0 | 23 | 54 | 12 | 60 | Activity (MCF7 [14]): inactive
NCCOCCO[C@@H]1O[C@@H](C(=O)O)[C@@H](O[C@@H]2O[C@@H](C(=O)O)[C@@H](O[C@@H]3O[C@@H](C(=O)O)[C@@H](OS(=O)(=O)O)[C@H](O)[C@H]3O)[C@H](O)[C@H]2O)[C@H](O)[C@H]1O | 30 | 92 | 63 | 86 | 36 | 78 | 80 | 75 | 83 | –

Reference: ChEMBL document CHEMBL5046215, “Heparan Sulfate Mimetics Differentially Affect Homologous Chemokines and Attenuate Cancer Development” (J Med Chem, 2021)
